What was measured:
[1] = target: T1, Alpha-2B adrenergic receptor (Homo sapiens, UniProt P18089)
T1 sequence (P18089 whole entry): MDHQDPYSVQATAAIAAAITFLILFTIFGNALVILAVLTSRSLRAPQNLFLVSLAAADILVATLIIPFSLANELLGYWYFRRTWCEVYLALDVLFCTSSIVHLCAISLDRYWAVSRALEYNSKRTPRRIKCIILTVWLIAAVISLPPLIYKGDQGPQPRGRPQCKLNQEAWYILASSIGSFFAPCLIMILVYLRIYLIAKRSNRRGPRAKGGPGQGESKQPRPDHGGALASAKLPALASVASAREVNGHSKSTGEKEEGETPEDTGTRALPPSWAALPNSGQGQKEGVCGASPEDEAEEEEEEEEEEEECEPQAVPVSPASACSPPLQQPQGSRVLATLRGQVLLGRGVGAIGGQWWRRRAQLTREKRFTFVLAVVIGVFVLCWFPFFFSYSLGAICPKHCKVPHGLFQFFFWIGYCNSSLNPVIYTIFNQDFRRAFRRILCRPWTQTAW

[2] = target: Gamma-aminobutyric acid receptor subunit alpha-1 (Rattus norvegicus, UniProt P62813); type: functional
[3] = target: T2, 5-hydroxytryptamine receptor 3A (Homo sapiens, UniProt P46098); type: functional
T2 sequence (P46098 whole entry): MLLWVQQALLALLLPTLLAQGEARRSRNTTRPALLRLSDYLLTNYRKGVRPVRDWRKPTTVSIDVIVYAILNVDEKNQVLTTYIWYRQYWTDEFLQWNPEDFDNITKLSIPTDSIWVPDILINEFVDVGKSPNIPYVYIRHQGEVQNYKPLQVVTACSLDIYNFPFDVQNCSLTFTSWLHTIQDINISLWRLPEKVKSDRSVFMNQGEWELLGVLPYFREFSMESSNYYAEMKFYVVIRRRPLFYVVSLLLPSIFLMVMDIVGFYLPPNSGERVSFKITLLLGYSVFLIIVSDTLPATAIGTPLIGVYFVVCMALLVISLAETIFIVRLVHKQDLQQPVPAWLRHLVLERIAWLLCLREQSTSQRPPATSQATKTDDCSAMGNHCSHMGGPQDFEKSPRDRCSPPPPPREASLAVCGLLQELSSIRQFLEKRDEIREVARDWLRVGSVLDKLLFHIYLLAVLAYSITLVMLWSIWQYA

[4] = target: T3, Alpha-2C adrenergic receptor (Homo sapiens, UniProt P18825); type: functional
T3 sequence (P18825 whole entry): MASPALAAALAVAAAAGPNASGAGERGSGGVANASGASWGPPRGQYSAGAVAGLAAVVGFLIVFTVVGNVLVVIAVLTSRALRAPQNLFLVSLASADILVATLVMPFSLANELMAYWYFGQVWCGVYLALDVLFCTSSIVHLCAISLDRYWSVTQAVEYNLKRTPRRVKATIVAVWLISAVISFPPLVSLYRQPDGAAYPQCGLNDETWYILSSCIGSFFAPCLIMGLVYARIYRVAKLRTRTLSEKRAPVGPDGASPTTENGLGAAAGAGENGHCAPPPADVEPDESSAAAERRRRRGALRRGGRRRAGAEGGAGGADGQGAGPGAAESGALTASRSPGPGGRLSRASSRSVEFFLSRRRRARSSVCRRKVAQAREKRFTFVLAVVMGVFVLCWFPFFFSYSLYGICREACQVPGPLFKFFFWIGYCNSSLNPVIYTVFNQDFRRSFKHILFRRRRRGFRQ

[5] = target: 5-hydroxytryptamine receptor 2A (Homo sapiens, UniProt P28223); type: functional, cell-based
[6] = target: T4, Type-1 angiotensin II receptor (Homo sapiens, UniProt P30556)
T4 sequence (P30556 whole entry): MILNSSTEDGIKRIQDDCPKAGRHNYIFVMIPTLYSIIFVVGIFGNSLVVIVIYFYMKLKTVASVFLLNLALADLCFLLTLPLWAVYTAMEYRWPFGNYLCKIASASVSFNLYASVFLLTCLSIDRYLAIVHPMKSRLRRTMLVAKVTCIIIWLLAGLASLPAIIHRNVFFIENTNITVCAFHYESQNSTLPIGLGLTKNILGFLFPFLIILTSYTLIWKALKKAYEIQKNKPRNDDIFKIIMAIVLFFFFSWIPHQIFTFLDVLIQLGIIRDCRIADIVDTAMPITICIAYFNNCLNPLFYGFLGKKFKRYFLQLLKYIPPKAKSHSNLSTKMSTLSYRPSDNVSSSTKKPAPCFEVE

[7] = target: Beta-1 adrenergic receptor (Homo sapiens, UniProt P08588); type: functional
D(1A) dopamine receptor = D(1A) dopamine receptor (Homo sapiens, UniProt P21728); type: functional, cell-based
Glucocorticoid receptor = target: T5, Glucocorticoid receptor (Homo sapiens, UniProt P04150)
T5 sequence (P04150 whole entry): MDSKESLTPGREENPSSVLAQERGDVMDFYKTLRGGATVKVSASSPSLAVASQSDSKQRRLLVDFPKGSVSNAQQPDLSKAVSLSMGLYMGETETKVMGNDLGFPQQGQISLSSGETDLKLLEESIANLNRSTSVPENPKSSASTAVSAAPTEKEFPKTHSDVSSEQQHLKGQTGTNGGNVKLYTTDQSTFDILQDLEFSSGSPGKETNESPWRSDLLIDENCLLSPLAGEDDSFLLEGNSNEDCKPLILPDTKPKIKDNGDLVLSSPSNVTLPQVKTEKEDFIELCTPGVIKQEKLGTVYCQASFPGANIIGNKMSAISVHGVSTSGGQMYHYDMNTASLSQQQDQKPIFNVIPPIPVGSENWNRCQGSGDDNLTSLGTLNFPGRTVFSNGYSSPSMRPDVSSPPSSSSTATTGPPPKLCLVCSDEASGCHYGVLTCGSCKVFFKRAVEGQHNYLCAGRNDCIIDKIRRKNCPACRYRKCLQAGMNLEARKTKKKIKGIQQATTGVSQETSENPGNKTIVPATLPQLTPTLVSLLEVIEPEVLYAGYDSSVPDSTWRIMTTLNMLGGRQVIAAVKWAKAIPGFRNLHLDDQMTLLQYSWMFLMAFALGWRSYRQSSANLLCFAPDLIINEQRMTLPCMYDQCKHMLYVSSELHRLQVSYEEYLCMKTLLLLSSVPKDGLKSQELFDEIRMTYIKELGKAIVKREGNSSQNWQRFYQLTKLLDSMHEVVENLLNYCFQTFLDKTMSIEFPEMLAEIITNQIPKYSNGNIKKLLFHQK
Further: assay procedure not described here.

5-hydroxytryptamine receptor 2A, sequence (P28223 whole entry): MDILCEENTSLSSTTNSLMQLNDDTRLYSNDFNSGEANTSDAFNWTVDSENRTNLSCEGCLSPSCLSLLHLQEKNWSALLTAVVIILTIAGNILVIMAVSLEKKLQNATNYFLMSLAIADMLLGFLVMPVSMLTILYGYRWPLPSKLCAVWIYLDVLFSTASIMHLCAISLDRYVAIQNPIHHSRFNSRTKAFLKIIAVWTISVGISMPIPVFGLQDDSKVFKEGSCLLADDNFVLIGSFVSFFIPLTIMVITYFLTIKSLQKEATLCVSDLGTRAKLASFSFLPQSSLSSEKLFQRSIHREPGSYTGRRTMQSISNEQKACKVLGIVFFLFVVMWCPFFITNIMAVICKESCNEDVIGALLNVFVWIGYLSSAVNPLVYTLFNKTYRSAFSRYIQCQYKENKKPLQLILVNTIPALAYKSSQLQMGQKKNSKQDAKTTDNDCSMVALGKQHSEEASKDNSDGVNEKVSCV
Gamma-aminobutyric acid receptor subunit alpha-1, sequence (P62813 whole entry): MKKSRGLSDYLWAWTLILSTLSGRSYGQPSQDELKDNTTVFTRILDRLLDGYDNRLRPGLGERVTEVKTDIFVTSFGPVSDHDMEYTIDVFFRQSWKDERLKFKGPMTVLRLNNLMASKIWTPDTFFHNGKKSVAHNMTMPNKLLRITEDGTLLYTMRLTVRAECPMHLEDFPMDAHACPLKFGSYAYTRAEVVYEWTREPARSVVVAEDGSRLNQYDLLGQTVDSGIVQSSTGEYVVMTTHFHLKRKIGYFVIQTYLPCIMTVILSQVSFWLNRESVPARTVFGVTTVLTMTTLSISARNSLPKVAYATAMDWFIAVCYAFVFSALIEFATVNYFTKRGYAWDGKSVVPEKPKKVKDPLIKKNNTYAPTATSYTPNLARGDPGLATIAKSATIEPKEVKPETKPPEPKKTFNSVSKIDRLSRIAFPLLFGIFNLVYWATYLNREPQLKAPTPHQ
Beta-1 adrenergic receptor, sequence (P08588 whole entry): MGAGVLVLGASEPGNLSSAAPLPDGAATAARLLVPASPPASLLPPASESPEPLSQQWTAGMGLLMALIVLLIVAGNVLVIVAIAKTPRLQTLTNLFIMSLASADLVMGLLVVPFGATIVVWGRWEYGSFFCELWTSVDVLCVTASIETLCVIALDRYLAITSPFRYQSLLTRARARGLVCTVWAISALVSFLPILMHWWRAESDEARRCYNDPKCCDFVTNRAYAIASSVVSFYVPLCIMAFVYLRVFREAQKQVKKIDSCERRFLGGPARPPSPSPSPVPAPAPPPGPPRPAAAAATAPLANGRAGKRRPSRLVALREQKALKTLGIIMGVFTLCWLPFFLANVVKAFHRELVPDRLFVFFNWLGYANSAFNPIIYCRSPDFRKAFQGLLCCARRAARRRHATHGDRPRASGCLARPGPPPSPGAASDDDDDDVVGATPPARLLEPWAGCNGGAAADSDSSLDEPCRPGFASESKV
D(1A) dopamine receptor, sequence (P21728 whole entry): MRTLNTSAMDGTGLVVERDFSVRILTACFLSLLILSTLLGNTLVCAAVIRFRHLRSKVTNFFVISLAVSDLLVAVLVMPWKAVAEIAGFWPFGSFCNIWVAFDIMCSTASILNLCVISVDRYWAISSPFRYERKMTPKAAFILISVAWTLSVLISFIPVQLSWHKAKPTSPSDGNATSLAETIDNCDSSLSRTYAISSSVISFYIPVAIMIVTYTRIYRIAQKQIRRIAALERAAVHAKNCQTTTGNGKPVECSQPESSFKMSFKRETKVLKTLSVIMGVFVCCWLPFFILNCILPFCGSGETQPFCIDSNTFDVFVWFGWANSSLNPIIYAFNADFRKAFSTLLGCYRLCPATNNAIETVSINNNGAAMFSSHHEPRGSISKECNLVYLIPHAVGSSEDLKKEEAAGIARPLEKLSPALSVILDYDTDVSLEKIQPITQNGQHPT

SMILES	AC50 [1]	AC50 [2]	AC50 [3]	AC50 [4]	AC50 [5]	AC50 [6]	AC50 [7]	AC50 (D(1A) dopamine receptor)	AC50 (Glucocorticoid receptor)
CN1CC(=O)N2[C@H](c3ccc4c(c3)OCO4)c3[nH]c4ccccc4c3C[C@@H]2C1=O	> 10 µM	> 10 µM	> 30 µM	> 10 µM	> 30 µM	> 30 µM	> 10 µM	> 10 µM	> 30 µM
COc1ccc2cccc(CCNC(C)=O)c2c1 [AGOMELATINE]	> 10 µM	> 10 µM	> 30 µM	> 10 µM	–	> 30 µM	> 10 µM	> 10 µM	> 30 µM
CCCC(CCC)C(=O)O[C@H]1C[C@H]2CC[C@@H](C1)[N+]2(C)C [ANISOTROPINE]	> 30 µM	> 30 µM	28 µM	> 30 µM	> 30 µM	> 30 µM	> 30 µM	> 30 µM	–
CN1CCc2cccc3c2[C@H]1Cc1ccc(O)c(O)c1-3 [APOMORPHINE]	–	> 10 µM	–	3.2 µM	> 30 µM	> 30 µM	> 10 µM	–	> 30 µM
NC(CO)C(=O)NNCc1ccc(O)c(O)c1O (stereo not drawn) [BENSERAZIDE]	> 10 µM	> 10 µM	> 30 µM	> 10 µM	> 30 µM	> 30 µM	> 10 µM	> 10 µM	–
CCCCCOC(=O)Nc1nc(=O)n([C@@H]2O[C@H](C)[C@@H](O)[C@H]2O)cc1F [CAPECITABINE]	> 30 µM	> 30 µM	> 30 µM	> 30 µM	> 30 µM	> 30 µM	> 30 µM	> 30 µM	–
CC(C)C(=O)OCC(=O)[C@@]12O[C@H](C3CCCCC3)O[C@@H]1C[C@H]1[C@@H]3CCC4=CC(=O)C=C[C@]4(C)[C@H]3[C@@H](O)C[C@@]12C [CICLESONIDE]	> 10 µM	> 10 µM	> 30 µM	> 10 µM	> 10 µM	> 10 µM	> 10 µM	> 10 µM	–
COC(=O)[C@H]1[C@@H](OC(=O)c2ccccc2)C[C@@H]2CC[C@H]1N2C [COCAINE]	> 30 µM	> 30 µM	> 30 µM	> 30 µM	> 30 µM	> 30 µM	> 30 µM	> 30 µM	–
[H]/N=C(/N)c1ccc(NCc2nc3cc(C(=O)N(CCC(=O)O)c4ccccn4)ccc3n2C)cc1 [DABIGATRAN]	> 30 µM	> 30 µM	> 30 µM	> 30 µM	> 30 µM	> 30 µM	> 30 µM	> 30 µM	–
CN[C@@H](C)[C@H](O)c1ccccc1 [EPHEDRINE]	> 10 µM	> 10 µM	> 30 µM	> 10 µM	–	> 30 µM	> 10 µM	> 10 µM	> 30 µM
CN1CC[C@]23CCCC[C@H]2[C@H]1Cc1ccc(O)cc13 [LEVORPHANOL]	> 30 µM	> 10 µM	> 30 µM	> 30 µM	> 10 µM	> 10 µM	> 10 µM	> 30 µM	–
CC/C=C\C/C=C\C/C=C\CCCCCCCC(=O)O [LINOLENIC ACID]	> 30 µM	> 30 µM	> 30 µM	> 30 µM	> 30 µM	> 30 µM	> 30 µM	> 30 µM	–
Cc1cc(-c2ccccc2)nnc1NCCN1CCOCC1 [MINAPRINE]	> 10 µM	> 10 µM	> 30 µM	> 10 µM	> 30 µM	> 30 µM	> 10 µM	> 10 µM	–
O=C(O)CCCc1ccccc1 [PHENYLBUTANOIC ACID]	> 30 µM	> 30 µM	> 30 µM	> 30 µM	> 30 µM	> 10 µM	> 10 µM	–	> 30 µM
Cc1nc2ccc(CN(C)c3ccc(C(=O)N[C@@H](CCC(=O)O)C(=O)O)s3)cc2c(=O)[nH]1 [RALTITREXED]	> 30 µM	> 30 µM	> 30 µM	> 30 µM	> 30 µM	> 30 µM	> 30 µM	> 30 µM	–
C#CCN[C@@H]1CCc2ccccc21 [RASAGILINE]	8.79 µM	> 30 µM	> 30 µM	21 µM	> 30 µM	> 30 µM	> 30 µM	> 30 µM	–
C1COC(NC(C2CC2)C2CC2)=N1 [RILMENIDINE]	7.5 µM	> 10 µM	> 30 µM	6.8 µM	> 30 µM	> 30 µM	> 10 µM	> 10 µM	–
Cc1c(C(=O)Nc2ccc(N3C[C@@H](C)O[C@@H](C)C3)nc2)cccc1-c1ccc(OC(F)(F)F)cc1 [SONIDEGIB]	> 10 µM	> 10 µM	> 10 µM	> 10 µM	–	> 30 µM	> 10 µM	–	> 30 µM
Cc1ccc(-c2nc3ccc(C)cn3c2CC(=O)N(C)C)cc1 [ZOLPIDEM]	> 30 µM	–	> 30 µM	> 30 µM	> 30 µM	> 30 µM	> 30 µM	> 30 µM	> 30 µM
CN1CCN(C(=O)OC2c3nccnc3C(=O)N2c2ccc(Cl)cn2)CC1 (stereo not drawn) [ZOPICLONE]	> 30 µM	0.093 µM	> 10 µM	> 30 µM	> 30 µM	> 30 µM	> 30 µM	> 10 µM	–

Reference: ChEMBL document CHEMBL5291721, “A preclinical secondary pharmacology resource illuminates target-adverse drug reaction associations of marketed drugs” (Nat Commun, 2023)
